*1 amine or outer side, *2 acyl side, *3 side chain or, on linkers, in order; H or OH if unused. Where a SMILES comes first, the peptide text is derived from it. Bridges are numbered along the chain shown (N, C = ends). Roman numbers before positions name the chains, in order. [ ]: non-standard residue; d: D form. Actinocin(9to1) = Cc1c2oc3c(C)ccc(C(=O)[*:1])c3nc-2c(C(=O)[*:2])c(N)c1=O; NMeV = CN[C@H](C(=O)O)C(C)C; Sar = CNCC(=O)O
Experiments:
interferon response [1] = details: pretreatment of the cells; cited from earlier work
interferon response [2] = tested on: interferon response

**Q.** Which results are given for `Cc1c2oc3c(C)ccc(C(=O)N[C@@H]4C(=O)N[C@H](C(C)C)C(=O)N5CCC[C@H]5C(=O)N(C)CC(=O)N(C)[C@@H](C(C)C)C(=O)O[C@@H]4C)c3nc-2c(C(=O)N[C@@H]2C(=O)N[C@H](C(C)C)C(=O)N3CCC[C@H]3C(=O)N(C)CC(=O)N(C)[C@@H](C(C)C)C(=O)O[C@@H]2C)c(N)c1=O` [actinomycin D] (I: T[dV]P[Sar][NMeV] / II: T[dV]P[Sar][NMeV]; ester I:1-I:C, II:1-II:C; linker I:N-II:N via Actinocin(9to1))?
**A.** effect on interferon response (interferon response [1]): blocks the interferon response; effect on virus yield relative to control cultures (interferon response [2]): substantial increase in virus yield; toxicity to the cells (interferon response [2]): relatively toxic to the cells

— patent EP1002054B1, “PROCESS FOR THE PRODUCTION OF VIRUS IN CELL CULTURES” (priority 1998, dated 1999)
